Test results from PMC10182977 (Nature Communications, 2023).

T1: xlCHPT1 (Xenopus laevis, UniProt Q4KLV1)
T1 construct: gene chpt1; full-length, codon-optimized; C-terminal His6-tag cleaved with TEV protease; Hi Five (Trichoplusia ni) baculovirus; detergent-purified homodimer; residues 20-383 modelled
T1 sequence (Q4KLV1 1-402): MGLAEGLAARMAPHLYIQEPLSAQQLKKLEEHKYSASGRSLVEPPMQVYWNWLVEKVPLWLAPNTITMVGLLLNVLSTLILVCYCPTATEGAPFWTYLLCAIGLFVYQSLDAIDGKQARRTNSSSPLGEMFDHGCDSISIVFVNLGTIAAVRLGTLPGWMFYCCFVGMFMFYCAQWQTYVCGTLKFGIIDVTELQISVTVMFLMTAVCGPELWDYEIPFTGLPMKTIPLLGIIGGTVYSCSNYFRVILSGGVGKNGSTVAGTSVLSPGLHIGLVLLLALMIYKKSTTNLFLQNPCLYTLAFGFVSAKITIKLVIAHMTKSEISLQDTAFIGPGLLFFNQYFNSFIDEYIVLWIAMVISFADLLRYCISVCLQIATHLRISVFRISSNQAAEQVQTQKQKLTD

B1: Xenopus laevis cholinephosphotransferase-1 (enzyme, UniProt Q4KLV1 1-402, looked up)
chain: T1 sequence (Q4KLV1 1-402)
notes: cholinephosphotransferase-1 (CHPT1) of Xenopus laevis, full length, codon-optimized gene; residues 20-383 are resolved in the cryo-EM models, the first 19 and the last 18 residues are not resolved; The His6 tag was cleaved with TEV protease; residues of the cleavage site may be left at the C-terminus; also called xlCHPT1; CHPT1; source: Hi Five (Trichoplusia ni) cells, baculovirus, purified (LMNG …)

Assays:
[1] = molecular target: T1, xlCHPT1; test: cryo-EM structure, ~[…] Å; format: binding; details: Mg2+ complex; 10 mM CDP and 0.5 mM DAG added; CDP-choline active site
[2] = molecular target: the molecule itself; test: cryo-EM structure; single-particle cryo-EM of purified xlCHPT1 in 20 mM HEPES, 150 mM NaCl, 2 mM BME, 4 mM MgCl2, 0.02% GDN; with 10 mM CDP-choline, or with 10 mM CDP and 0.5 mM DAG; refined with C2 symmetry

| Molecule | cryo-EM structure, ~3.2 Å [1] | stoichiometry N [2] |
| --- | --- | --- |
| Nc1ccn([C@@H]2O[C@H](COP(=O)(O)OP(=O)(O)O)[C@@H](O)[C@H]2O)c(=O)n1 [CDP] | xlCHPT1 in complex with CDP have been deposited in the PDB under the accession code 8ERO |  |
| B1 |  | 2 |
